Reference: PMC12749748, “Chemically-induced degradation of the endoplasmic-reticulum stress sensor IRE1 by a VHL-recruiting chimera” (Nature Communications, 2025)

Key:
[1] = target: T1, human IRE1.KR (Homo sapiens, UniProt O75460); experiment: Surface plasmon resonance, binary interaction with IRE1.KR; assay type: binding; details: SPR, immobilised IRE1.KR, 20 °C, 1 to 1 kinetic model
T1 construct: Recombinant human IRE1.KR (G547-L977) was purified using an established protocol; His6 (with TEV protease cleavage site) (N, cleaved yes); made in house; host or cells: Sf9
Protocol: All SPR experiments in this paper were recorded on a Biacore S200 instrument; all protein captures and data collection were at 20 °C.
For binary interactions with G6374: a Xantec SAHC 200 M (streptavidin) chip was inserted into the instrument and primed into running buffer [50 mM HEPES (pH 7.4), 150 mM NaCl, 0.001% Tween 20, 0.2% PEG3350, 0.25 mM TCEP, and 2% DMSO]. Biotinylated human IRE1.KR protein was captured on FC2 to 2-4000 RU, biotinylated VHL in complex with Elongin B (VHL/EloB) was captured on FC4 to 1-2000 RU, data were collected, and all referenced to FC1. Affinity for G6374 was measured using a titration series, injected from low to high with an 8-point, 2-fold dilution dose response with a top concentration of 0.5 μM in both single cycle (single cycle kinetics (SCK)) and multi cycle kinetics (MCK) formats. For MCK experiments, an association time of 45 s and a dissociation time of 200 s with a flow rate of 50 μL/min. For SCK experiments, an association time of 45 s and a dissociation time of 2000 s with a flow rate of 50 μL/min were used. All data were analyzed using Insight software (Cytiva) using a 1 to 1 kinetic binding model.

[2] = tested on: AMO1 cells; experiment: Global proteomics of protein depletion in AMO1 cells; assay type: cell-based; details: 1 µM, 4 h
Protocol: One milligram of protein lysate in denaturing buffer (8 M Urea, 20 mM HEPES, pH 8.0) was reduced (5 mM dithiothreitol (DTT), 45 min at 37 °C), alkylated (15 mM iodoacetamide (IAA), 20 min at room temperature in the dark), and quenched (5 mM DTT, 15 min at room temperature in the dark). Proteins were pelleted by chloroform-methanol precipitation. The resulting pellet was resuspended in denaturing buffer, diluted to 4 M Urea, and digested for 4 h at 37 °C with lysyl-endopeptidase (Wako) at an enzyme to protein ratio of 1:100. The sample was further diluted to 1.3 M Urea and subjected to overnight enzymatic digestion at 37 °C with sequencing grade trypsin (Promega, enzyme: protein ratio = 1:50). Resultant peptides were acidified with 20% Trifluoroacetic acid (TFA, 1% final concentration), centrifuged at 18,000 × g for 15 min, and desalted using a Sep-Pak C18 column (Waters). […]
For the global proteome, LC-MS/MS analysis was performed by injecting 1 μL of each fraction on an Orbitrap Eclipse mass spectrometer (Thermo Fisher) coupled to a Dionex Ultimate 3000 RSLC (Thermo Fisher) employing a 25 cm IonOpticks Aurora Series column (IonOpticks, Parkville, Australia) with a gradient of 2% to 30% buffer B (98% ACN, 2% H2O with 0.1% FA, flow rate = 300 nL/min). Global proteome samples were analyzed with a total run time of 95 min. […]

T1 sequence (O75460 547-977): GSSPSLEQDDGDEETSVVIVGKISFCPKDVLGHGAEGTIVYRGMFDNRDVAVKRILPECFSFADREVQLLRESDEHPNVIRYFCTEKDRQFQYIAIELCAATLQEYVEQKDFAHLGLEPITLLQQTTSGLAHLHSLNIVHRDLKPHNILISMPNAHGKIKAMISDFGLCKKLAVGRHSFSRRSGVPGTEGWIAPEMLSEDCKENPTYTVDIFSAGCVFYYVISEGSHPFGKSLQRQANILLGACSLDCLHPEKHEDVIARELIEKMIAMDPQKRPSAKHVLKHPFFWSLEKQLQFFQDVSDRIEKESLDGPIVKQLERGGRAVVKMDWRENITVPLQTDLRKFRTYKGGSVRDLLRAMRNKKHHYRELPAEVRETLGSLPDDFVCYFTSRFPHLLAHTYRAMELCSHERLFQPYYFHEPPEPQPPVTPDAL

Cc1ncsc1-c1ccc(CNC(=O)[C@@H]2C[C@@H](O)CN2C(=O)[C@@H](NC(=O)CCCCN2CCN([C@H]3CC[C@H](Nc4ncc5ccc(=O)n(C(C)C)c5n4)CC3)CC2)C(C)(C)C)cc1 [G6374]
Kd [1]: 0.56 nM
kd [1]: 0.0025 s⁻¹
kon ([1]; read-out: ka): 4.95e+06 M⁻¹ s⁻¹
protein depletion by global proteomics, G6374 versus G2642 [2]: IRE1 as the most substantially and significantly depleted protein target
